Results: PMC9115112, “A2B adenosine receptor antagonists rescue lymphocyte activity in adenosine-producing patient-derived cancer models” (Journal for Immunotherapy of Cancer, 2022)

Columns and labels:
hA2B (A2BAR) = molecular target: T1, hA2B (A2BAR) (Homo sapiens, UniProt P29275); assay: cAMP assay, NECA-stimulated, HEK-293 cells with transfected A2BAR; format: cell-based; settings: n=3, read-out: Kb hA2B (cAMP production)
T1 construct: expressed in transfected cells; host or cells: HEK-293
T1 sequence (P29275 1-332): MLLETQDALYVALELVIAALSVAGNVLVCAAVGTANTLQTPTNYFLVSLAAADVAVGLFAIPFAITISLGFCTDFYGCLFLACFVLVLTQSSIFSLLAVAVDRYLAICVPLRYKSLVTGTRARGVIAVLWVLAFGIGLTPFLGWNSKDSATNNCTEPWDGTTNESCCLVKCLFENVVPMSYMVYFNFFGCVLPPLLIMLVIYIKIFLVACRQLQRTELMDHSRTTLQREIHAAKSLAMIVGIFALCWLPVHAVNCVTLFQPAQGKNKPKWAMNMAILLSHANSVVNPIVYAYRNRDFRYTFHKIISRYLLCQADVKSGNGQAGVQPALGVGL
Experimental: Assays were performed in transfected A2BAR using a cyclic AMP (cAMP) enzyme immunoassay kit (Amersham Biosciences) following previously described protocols.[28 30] HEK-293 cells were seeded (10,000 cells/well) in 96-well culture plates and incubated at 37°C in an atmosphere with 5% CO2 in Eagle’s Medium Nutrient Mixture F-12 (EMEM F-12), containing 10% fetal calf serum (FCS) and 1% L-Glutamine. Cells were washed three times with 200 µL assay medium (EMEM-F12 and 25 mM HEPES pH=7.4) and pre-incubated with assay medium containing 30 µM rolipram and test compounds at 37°C for 15 min. Ten µM NECA was incubated for 15 min at 37°C (total incubation time 30 min). Reaction was stopped with lysis buffer supplied in the kit and the enzyme immunoassay was carried out for detection of intracellular cAMP at 450 nm in an Ultra Evolution detector (Tecan). The dose-response curve of NECA-elicited cAMP formation was used to determine the initial choice of A2BAR antagonist concentration (online supplemental figure 2).

human A1AR = molecular target: T2, human A1AR (Homo sapiens, UniProt P30542); assay: Radioligand binding, human A1AR ([3H]DPCPX, transfected CHO cells); settings: displacement of [3H]DPCPX, n=3, racemic mixtures
T2 construct: expressed in transfected cells; host or cells: CHO
T2 sequence (P30542 1-326): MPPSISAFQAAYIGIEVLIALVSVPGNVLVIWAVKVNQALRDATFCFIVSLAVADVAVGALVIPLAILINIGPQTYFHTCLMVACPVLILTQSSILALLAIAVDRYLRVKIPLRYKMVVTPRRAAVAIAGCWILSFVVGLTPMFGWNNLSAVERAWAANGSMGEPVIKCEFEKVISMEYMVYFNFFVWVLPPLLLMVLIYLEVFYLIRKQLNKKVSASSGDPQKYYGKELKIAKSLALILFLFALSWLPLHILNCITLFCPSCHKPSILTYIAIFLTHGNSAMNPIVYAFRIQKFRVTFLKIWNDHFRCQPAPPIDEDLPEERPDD
Experimental: (§1) The affinity and selectivity profiles of the ligands obtained was studied in vitro, radioligand binding assays, at the four human specific ARs subtypes, using experimental protocols previously described.[28–30] All ligands were prepared and tested as racemic mixtures. […] Non-specific binding was determined in the presence of R-PIA 10 µM for A1AR, NECA 50 µM for A2AAR, NECA 400 μΜ for A2BAR and R-PIA 100 μΜ for A3AR.

human A3AR = molecular target: T3, human A3AR (Homo sapiens, UniProt P0DMS8); assay: Radioligand binding, human A3AR ([3H]NECA, transfected HeLa cells); settings: displacement of [3H]NECA, n=3, racemic mixtures
T3 construct: expressed in transfected cells; host or cells: HeLa
T3 sequence (P0DMS8 1-318): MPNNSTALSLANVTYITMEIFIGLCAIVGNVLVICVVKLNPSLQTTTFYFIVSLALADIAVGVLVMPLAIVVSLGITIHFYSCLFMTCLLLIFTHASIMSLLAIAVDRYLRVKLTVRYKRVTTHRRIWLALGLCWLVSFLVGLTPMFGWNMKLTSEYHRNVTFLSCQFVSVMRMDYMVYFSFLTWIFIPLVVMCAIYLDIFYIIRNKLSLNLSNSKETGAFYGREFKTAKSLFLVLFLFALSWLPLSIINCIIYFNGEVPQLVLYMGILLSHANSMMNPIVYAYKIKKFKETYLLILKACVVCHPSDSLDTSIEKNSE
Experimental: as §1

[1] = tested on: pAMPK in CD4 and CD8 T cells; assay: Extracellular ADO uptake assay via pAMPK staining; format: cell-based, human; settings: antagonist 12 µM, 50 µM exogenous adenosine, n=7 healthy donors
Experimental: Experimental setup was adopted from a previous study whereby AR antagonist was added to pretreat cells before exogenous adenosine treatment for intracellular and cytokine staining.[37] In brief, PBMCs were treated with 12 µM of A2BAR antagonists for 90 min before the addition of 50 µM of adenosine for 2 hours. Cells were harvested after 3 hours of CD3/CD28 bead stimulation before intracellular staining with phosphor-AMPK (Thr183, Thr172) rabbit primary antibody (Thermo Fisher Scientific) and antirabbit secondary antibody (BD biosciences).
Figure 4 Rescue of lymphocyte proinflammatory cytokine production IFNy and perforin by A2BAR antagonism. (A,B) Inhibition of extracellular adenosine uptake via phosphorylated-AMP activated protein kinase (pAMPK) staining (n=7 healthy donors). Production of proinflammatory cytokines—(C,D) IFNy and (E) perforin in CD4 (n=5 healthy donors) and CD8 (n=6 healthy donors) T cells. Expression of CD69 adhesion molecule in (F). CD4 (n=7 healthy donors) and (G) CD8 (n=4 healthy donors) T cells. A2BAR antagonist 12 µM was added. Outlier is presented as diamond shape and defined by Tukey’s rule, which is not included in statistical analysis. Box plots with minimum, first quartile, median, third quartile, and maximum are presented. Normalized fold change is based on percent values compared with untreated controls. Unpaired and non-parametric statistical analysis—Mann-Whitney test was performed against untreated control with *p<0.05, **p<0.01, ***p<0.001, and ****p<0.0001.

human A2BAR = molecular target: T4, human A2BAR (Homo sapiens, UniProt P29275); assay: Radioligand binding, human A2BAR ([3H]DPCPX, transfected HEK-293 cells); settings: displacement of [3H]DPCPX, human HEK-293 cells, n=3, racemic mixtures; read-out: Ki hA2B
T4 construct: expressed in transfected cells; host or cells: HEK-293
T4 sequence (P29275 1-332): T1 sequence (P29275 1-332)
Experimental: as §1

Compound	Kb (hA2B (A2BAR)) [nM]	Ki hA1 (human A1AR; human CHO cells)	Ki hA3 (human A3AR)	pAMPK (extracellular ADO uptake) in CD8 T cells [1]	Ki (human A1AR; transfected CHO cells, read-out: Ki hA1) [nM]	Ki (human A3AR; read-out: Ki hA3) [nM]	Ki (human A2BAR) [nM]	pAMPK (extracellular ADO uptake) in CD4 T cells [1]
CC1=C(C(=O)OC(C)C)C(c2ccco2)n2c(nc3ccccc32)N1 (stereo not shown) [ISAM-140, isopropyl 4-(furan-2-yl)−2-methyl-1,4-dihydrobenzo[4 5] imidazo[1,2 a]pyrimidine-3-carboxylate]	27	–	–	–	–	–	–	–
CC1=C(C(=O)OC(C)C)C(c2ccoc2)n2c(nc3cc(Cl)ccc32)N1 (stereo not shown) [ISAM-M89A]	–	devoid of affinity	devoid of affinity	significantly inhibited ADO uptake	–	–	–	–
CC1=C(C(=O)OC(C)C)C(c2ccco2)n2c(nc3ccccc32)N1Cc1ccccc1F (stereo not shown) [ISAM-R56A]	6.15	–	–	significantly downregulated pAMPK	> 1000	> 1000	1.5	significantly downregulated pAMPK
